This note sets out measurements from patent publication US4837316A, “Alkylamide derivatives with H2 -receptor antagonistic and cytoprotective action” (Fujirebio Kabushiki Kaisha, priority 1985, dated 1989).

One assay deals with T1, Histamine H2-receptor (Cavia porcellus, UniProt P47747).
T1 construct: the right atrium was isolated rapidly; from tissue; host or cells: guinea pig right atrium (isolated organ)
The assay is described as follows: Histamine H2-receptor antagonistic action (isolated right atrium, histamine response). The settings on record: isolated guinea-pig right atrium, 32° C., tested compound 1×10^-6 M or 1×10^-7 M, Van Rossum method; for Kb: read-out: pA2 (converted). The protocol:
Histamine H2 -receptor antagonistic actions of the exemplified compounds were measured. Male Guinea-Pig weighing 300 to 350 g was killed by a blow on the head. After thoracotomy, the right atrium was isolated rapidly, and the surrounding tissues of the right atrium was carefully dissected. The preparation was mounted isometrically in 30 ml organ bath containing an oxygenated (O2 95%+CO2 5%) Krebs-Henselite solution at 32° C. 1 g of resting tension was loaded through the experiment. Contraction of the right atrium to histamine was measured with a force-displacement transducer, and heart rate was measured with a heart rate meter. After the control dose-response curve in the presence of tested compound (1×10^-6 M or 1×10^-7 M) was determined.
The pA2 value of each compound was determined from these two curves by the method of J. M. Van Rossum (Arch. Int. Pharmacodyn. Ther 143-299 (1963)).

For a further assay, the system named is gastric mucosal leasion. The assay is described as follows: Cytoprotective action (gastric mucosal lesion by necrotizing agent 0.4N HCl+50% EtOH). The settings on record: Rattus norvegicus, po; 10 mg/kg P.O., 30 minutes before 5 ml/kg 0.4N HCl+50% EtOH; stomach taken 1 hour after; read-out: Repression % (inhibition % of total area of gastric mucosal leasion vs control). Type of assay: in vivo, Male Donryu rats. The method, then:
Cytoprotective actions of the exemplified compounds were examined.
Male Donryu rats weighing 150-250 g were used after fasting for 24 hours. 10 mg/kg P.O. of the test compound was administrated, and 5 ml/kg of a necrotizing agent (0.4N HCl+50% EtOH) was orally administrated after 30 minutes. After 1 hour from the administration of the necrotizing agent, its stomach was dissected out, and fixed with formalin. Total area of gastric mucosal leasion was measured, and compared with a control group to determine inhibition %.

T1 sequence (P47747 whole entry): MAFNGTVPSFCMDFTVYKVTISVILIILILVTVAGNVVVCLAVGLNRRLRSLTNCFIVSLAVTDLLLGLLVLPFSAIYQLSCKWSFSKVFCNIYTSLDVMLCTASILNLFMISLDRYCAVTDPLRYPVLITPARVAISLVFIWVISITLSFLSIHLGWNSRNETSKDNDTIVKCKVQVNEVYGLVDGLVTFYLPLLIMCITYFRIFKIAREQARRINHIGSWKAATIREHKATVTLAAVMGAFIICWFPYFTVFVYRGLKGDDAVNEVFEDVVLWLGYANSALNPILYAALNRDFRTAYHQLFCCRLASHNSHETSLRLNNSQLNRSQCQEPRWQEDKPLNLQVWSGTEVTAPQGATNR

Take `O=C(CSCc1ccccc1)NCCCOc1cccc(CN2CCCCC2)c1` [Compound 1, N-[3-{3-(piperidinomethyl)phenoxy}propyl]-2-(benzylthio)acetamide]: on Histamine H2-receptor, the Kb is 31.6 nM. Further, the inhibition in vivo at 10 mg/kg with gastric mucosal leasion was determined as 59%.

On to `COc1ccc(CSCC(=O)NCCCOc2cccc(CN3CCCCC3)c2)cc1` [Compound 12, N-[3-{3-(piperidinomethyl)phenoxy}propyl]-2-(4-methoxybenzylthio)acetamide], for which the Kb at Histamine H2-receptor was 50.1 nM.

Turning to `O=C(CSCCCc1ccccc1)NCCCOc1cccc(CN2CCCCC2)c1` [Compound 14, N-[3-{3-(piperidinomethyl)phenoxy}propyl]-2-(3-phenylpropyl-1-thio)acetamide], the inhibition in vivo at 10 mg/kg in the assay with gastric mucosal leasion was 55%.

Regarding `O=C(CSCC1CCCCC1)NCCCOc1cccc(CN2CCCCC2)c1` [Compound 16, N-[3-{3-(piperidinomethyl)phenoxy}propyl]-2-(cyclohexylmethylthio)acetamide], at Histamine H2-receptor, the Kb is 12.6 nM.

On to `O=C(CSCc1ccco1)NCCCOc1cccc(CN2CCCCC2)c1` [Compound 19, N-[3-{3-(piperidinomethyl)phenoxy}propyl]-2-(furfurylthio)acetamide], for which the Kb at Histamine H2-receptor is 50.1 nM. The inhibition in vivo at 10 mg/kg with gastric mucosal leasion turned out to be 63%.

On to `O=C(CSCc1cccs1)NCCCOc1cccc(CN2CCCCC2)c1` [Compound 20], for which the inhibition in vivo at 10 mg/kg with gastric mucosal leasion worked out at 45%.

In the case of `O=C(CSCc1ccc2ccccc2c1)NCCCOc1cccc(CN2CCCCC2)c1` [Compound 21, N-[3-{3-(piperidinomethyl)phenoxy}propyl]-2-(2-naphthylmethylthio)acetamide], the inhibition in vivo at 10 mg/kg in the assay on gastric mucosal leasion was 60%.

Turning to `O=C(CCCSCc1ccccc1)NCCCOc1cccc(CN2CCCCC2)c1` [Compound 30], in the assay with gastric mucosal leasion, the inhibition in vivo at 10 mg/kg was 62%.

In the case of `O=C(CCCCCSCc1ccccc1)NCCCOc1cccc(CN2CCCCC2)c1` [Compound 35, N-[3-{3-(piperidinomethyl)phenoxy}propyl]-6-(benzylthio)hexylamide], the inhibition in vivo at 10 mg/kg in the assay on gastric mucosal leasion stood at 61%.

As for `O=C(C[S+]([O-])Cc1ccccc1)NCCCOc1cccc(CN2CCCCC2)c1` (centres unmarked) [Compound 44, N-[3-{3-(piperidinomehtyl)phenoxy}propyl]-2-(benzylsulfinyl)acetamide], the Kb at Histamine H2-receptor is 251 nM. Moreover, in the assay on gastric mucosal leasion, the inhibition in vivo at 10 mg/kg was found to be 73%.

On to `O=C(CS(=O)(=O)Cc1ccccc1)NCCCOc1cccc(CN2CCCCC2)c1` [Compound 45, N-[3-{3-(piperidinomethyl)phenoxy}propyl]-2-(benzylsulfonyl)acetamide], for which the inhibition in vivo at 10 mg/kg in the assay with gastric mucosal leasion turned out to be 72%.

With `O=C(C[S+]([O-])Cc1ccco1)NCCCOc1cccc(CN2CCCCC2)c1` (centres unmarked) [Compound 46, N-[3-[3-(piperidinomethyl)phenoxy}propyl]-2-(furfurylsulfinyl)acetamide], in the assay on gastric mucosal leasion, the inhibition in vivo at 10 mg/kg was 72%.

`O=C(CS(=O)(=O)Cc1ccco1)NCCCOc1cccc(CN2CCCCC2)c1` [Compound 47, N-[3-[3-(piperidinomethyl)phenoxy]propyl]-2-(furfurylsulfonyl)acetamide]: the inhibition in vivo at 10 mg/kg in the assay on gastric mucosal leasion is 85%.

On to `O=C(CSCc1ccc(C(=O)O)cc1)NCCCOc1cccc(CN2CCCCC2)c1` [Compound 48, N-[3-{3-(piperidinomethyl)phenoxy}propyl]-2-(4-carboxylbenzylthio)acetamide], for which the Kb on Histamine H2-receptor was 31.6 nM.

As to `O=C(CSCc1ccoc1)NCCCOc1cccc(CN2CCCCC2)c1` [Compound 57, N-[3-{3-(piperidinomethyl)phenoxy}propyl]-2-(3-furylmethylthio)acetamide], the Kb on Histamine H2-receptor is 31.6 nM. For the same compound, in the assay on gastric mucosal leasion, the inhibition in vivo at 10 mg/kg amounted to 69%.

Turning to `CC(SCC(=O)NCCCOc1cccc(CN2CCCCC2)c1)c1ccco1` (centres unmarked) [Compound 58, N-[3-{3-(piperidinomethyl)phenoxy}propyl]-2-{1-(2-furyl)ethylthio}acetamide], the Kb at Histamine H2-receptor is 31.6 nM.

In the case of `Cc1ccc(CSCC(=O)NCCCOc2cccc(CN3CCCCC3)c2)o1` [Compound 69, N-[3-{3-(piperidinomethyl)phenoxy}propyl]-2-(5-methyl-furfurylthio)acetamid], the Kb at Histamine H2-receptor was 3.98 nM. Further, the inhibition in vivo at 10 mg/kg in the assay with gastric mucosal leasion stood at 59%.

For `CC1CCN(Cc2cccc(OCCCNC(=O)CS(=O)(=O)Cc3ccoc3)c2)CC1` [Compound 72], the Kb on Histamine H2-receptor is 100 nM. Moreover, the inhibition in vivo at 10 mg/kg with gastric mucosal leasion came to 60%.

As for `CC1CCCN(Cc2cccc(OCCCNC(=O)CS(=O)(=O)Cc3ccoc3)c2)C1` (centres unmarked) [Compound 73], the Kb at Histamine H2-receptor is 50.1 nM. Also, the inhibition in vivo at 10 mg/kg in the assay on gastric mucosal leasion came out at 88%.

For `CC1CCCCN1Cc1cccc(OCCCNC(=O)CS(=O)(=O)Cc2ccoc2)c1` (centres unmarked) [Compound 74], on Histamine H2-receptor, the Kb was 631 nM. Besides, in the assay on gastric mucosal leasion, the inhibition in vivo at 10 mg/kg amounted to 50%.

As for `COC(=O)c1ccc(CSCC(=O)NCCCOc2cccc(CN3CCCCC3)c2)o1` [Compound 75, N-[3-{3-(piperidinomethyl)phenoxy}propyl]-2-{(5-methoxycarbonyl)furfurylthio}acetamide], the Kb at Histamine H2-receptor was 20 nM.

As to `COc1ccc(CSCC(=O)NCCCOc2cccc(CN3CCCCC3)c2)nc1` [Compound 79], the Kb at Histamine H2-receptor was 7.94 nM. The inhibition in vivo at 10 mg/kg with gastric mucosal leasion came to 53%.

`O=C(CSCc1cccc(Cl)n1)NCCCOc1cccc(CN2CCCCC2)c1` [Compound 82, N-[3-{3-(piperidinomethyl)phenoxy}propyl]-2-(6-chloro-2-pyridylmethylthio)acetamide]: on Histamine H2-receptor, the Kb was 20 nM. Moreover, in the assay with gastric mucosal leasion, the inhibition in vivo at 10 mg/kg was 61%.

As to `Cc1cccc(CSCC(=O)NCCCOc2cccc(CN3CCCCC3)c2)n1` [Compound 86], at Histamine H2-receptor, the Kb was 25.1 nM.

As to `O=C(CSCc1ccco1)NCCSCc1ccc(CN2CCCCC2)o1` [Compound 89], the inhibition in vivo at 10 mg/kg with gastric mucosal leasion is 46%.

With `O=C(CSCc1ccco1)NCCSCc1ccc(C=CCN2CCCC2)s1` [Compound 93], the inhibition in vivo at 10 mg/kg with gastric mucosal leasion was found to be 43%.

As for `O=C(CSCc1ccco1)NCCSCc1ccc(CN2CCCCC2)s1` [Compound 94], the Kb on Histamine H2-receptor is 316 nM.

With `O=C(CSCc1ccco1)NCCCOc1cc(CN2CCCCC2)ccn1` [Compound 100], at Histamine H2-receptor, the Kb is 100 nM. In the assay with gastric mucosal leasion, the inhibition in vivo at 10 mg/kg is 35%.

For the compound `NC(N)=Nc1nc(CSCCNC(=O)CSCc2ccoc2)cs1` [Compound 104], the Kb on Histamine H2-receptor was 200 nM. Moreover, in the assay on gastric mucosal leasion, the inhibition in vivo at 10 mg/kg is 50.6%.

As for `NC(N)=Nc1nc(CSCCNC(=O)CSCc2ccccc2)cs1` [Compound 105], the Kb at Histamine H2-receptor is 79.4 nM.

With `NC(N)=Nc1nc(CSCCNC(=O)CSCc2cccs2)cs1` [Compound 106], at Histamine H2-receptor, the Kb is 200 nM.

Consider `NC(N)=Nc1nc(CSCCNC(=O)CSCC2CCCCC2)cs1` [Compound 107], for which, at Histamine H2-receptor, the Kb was 794 nM. For the same compound, the inhibition in vivo at 10 mg/kg in the assay on gastric mucosal leasion was 52.3%.

In the case of `NC(N)=Nc1nc(CSCCNC(=O)CSCc2ccc3ccccc3c2)cs1` [Compound 108], in the assay on gastric mucosal leasion, the inhibition in vivo at 10 mg/kg turned out to be 51.2%.

One may read the pA2 as the negative logarithm of the molar antagonist concentration that doubles the agonist concentration needed for the same response. On Histamine H2-receptor, `NC(N)=Nc1nc(CSCCNC(=O)CSCc2ccccn2)cs1` [Compound 109] had a pA2 of 7.6.

Take `NC(N)=Nc1nc(CSCCNC(=O)CSCc2ccco2)cs1` [Compound 110]: at Histamine H2-receptor, the Kb is 79.4 nM. Also, the inhibition in vivo at 10 mg/kg in the assay with gastric mucosal leasion came to 58%.

Take `Cc1ccc(CSCC(=O)NCCCOc2cccc(CN3CCCCC3)c2)s1` [Compound 112, N-[3-{3-(piperidinomethyl)phenoxy}propyl]-2-{(5methyl-2-thienyl)methylthio}acetamide]: the Kb at Histamine H2-receptor is 15.8 nM.

In the case of `O=C(CSCc1ccc(Cl)s1)NCCCOc1cccc(CN2CCCCC2)c1` [Compound 113, N-[3-{(piperidinomethyl)phenoxy}propyl]-2-{(5-chloro-2-thienyl)methylthio}acetamide], the Kb at Histamine H2-receptor was 25.1 nM.

Take `O=C(CSCc1ccsc1Cl)NCCCOc1cccc(CN2CCCCC2)c1` [Compound 114, N-[3-{3-(piperidinomethyl)phenoxy}propyl]-2-{(2-chloo-3-thienyl)methylthio}acetamide]: the Kb at Histamine H2-receptor is 39.8 nM.

As to `CC(=O)Nc1ccsc1CSCC(=O)NCCCOc1cccc(CN2CCCCC2)c1` [Compound 116, N-[3-{3-(piperidinomethyl)phenoxy}propyl]-2-{(3-acetamide-2-thienyl)methylthio}acetamide], the Kb at Histamine H2-receptor was 31.6 nM.
